How the values were obtained:
HCT-116 = assay: Cytotoxicity against human HCT116 cells after 96 hrs by MTT assay; assay type: functional, cell-based; conditions: HCT-116, 96 h
HT-29 = assay: Cytotoxicity against human HT-29 cells after 96 hrs by MTT assay; assay type: functional, cell-based; conditions: HT-29, 96 h

Question: With `CC(=O)N[C@H]1[C@H](O[C@H]2CC[C@]3(C)[C@H]4CC=C5[C@@H]6CC(C)(C)CC[C@]6(C(=O)O[C@@H]6O[C@H](CO)[C@@H](O)[C@H](O)[C@H]6O[C@@H]6OC[C@](O)(CO)[C@H]6O)[C@H](O)C[C@@]5(C)[C@]4(C)CC[C@H]3C2(C)C)O[C@H](CO[C@@H]2OC[C@H](O)[C@H](O)[C@H]2O)[C@@H](O)[C@@H]1O[C@@H]1OC[C@@H](O)[C@H](O)[C@H]1O` [PURSAETHOSIDE B] as the compound, how does the IC50 (HCT-116) read?
Answer: > 100 µg/mL

Question: What about the IC50 (HT-29) of the same compound?
Answer: > 100 µg/mL

Question: What does the source list for `CC(=O)N[C@H]1[C@H](O[C@H]2CC[C@]3(C)[C@H]4CC=C5[C@@H]6CC(C)(C)CC[C@]6(C(=O)O[C@@H]6O[C@H](CO)[C@@H](O)[C@H](O)[C@H]6O[C@@H]6OC[C@](O)(CO)[C@H]6O)[C@H](O)[C@H](O)[C@@]5(C)[C@]4(C)CC[C@H]3C2(C)C)O[C@H](CO[C@@H]2OC[C@H](O)[C@H](O)[C@H]2O)[C@@H](O)[C@@H]1O[C@@H]1OC[C@@H](O)[C@H](O)[C@H]1O` [PURSAETHOSIDE C]?
Answer: IC50 (HCT-116): > 100 µg/mL; IC50 (HT-29): > 100 µg/mL
